Reference: ChEMBL document CHEMBL4265921, “Novel bisphosphonates with antiresorptive effect in bone mineralization and osteoclastogenesis” (Eur J Med Chem, 2018)
Activity calls are given as the source filed them. The calls are words filed in the database; no cut-off is given here.

Experiments:
[1] = target: T1, Farnesyl pyrophosphate synthase (Homo sapiens) (UniProt P14324); assay: Inhibition of recombinant human C-terminal His6-tagged FPPS expressed in Escherichia coli BL21 at 100 uM using DMAPP and IPP as substrates pretreated for 15 mins followed by substrates addition and measured after 1 hr by colorimetric method relative to control
T1 sequence (whole entry): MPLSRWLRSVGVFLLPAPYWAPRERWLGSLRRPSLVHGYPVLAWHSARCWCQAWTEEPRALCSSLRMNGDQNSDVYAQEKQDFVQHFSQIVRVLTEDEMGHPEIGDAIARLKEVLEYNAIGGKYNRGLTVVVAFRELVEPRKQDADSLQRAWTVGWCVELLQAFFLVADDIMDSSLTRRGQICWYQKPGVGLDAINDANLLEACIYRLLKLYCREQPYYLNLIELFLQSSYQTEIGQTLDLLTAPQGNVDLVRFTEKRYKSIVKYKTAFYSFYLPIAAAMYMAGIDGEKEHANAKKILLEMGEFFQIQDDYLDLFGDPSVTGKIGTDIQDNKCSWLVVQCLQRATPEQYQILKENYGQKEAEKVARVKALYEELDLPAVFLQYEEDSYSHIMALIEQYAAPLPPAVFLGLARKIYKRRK

RAW264.7 [2] = assay: Antiproliferative activity against mouse RAW264.7 cells assessed as change in cell proliferation at 100 uM after 72 hrs by crystal violet staining based assay relative to control; format: functional
J774.A1 [3] = assay: Antiproliferative activity against mouse J774A.1 cells assessed as change in cell proliferation at 100 uM after 72 hrs by crystal violet staining based assay relative to control; format: functional
MG-63 [4] = assay: Antiproliferative activity against human MG63 cells assessed as change in cell proliferation at 100 uM after 72 hrs by crystal violet staining based assay relative to control; format: functional
[5] = target: T1, Farnesyl pyrophosphate synthase (Homo sapiens); assay: Inhibition of recombinant human C-terminal His6-tagged FPPS expressed in Escherichia coli BL21 at 1 to 10 uM using DMAPP and IPP as substrates pretreated for 15 mins followed by substrates addition and measured after 1 hr by colorimetric method relative to control
J774.A1 [6] = assay: Antiproliferative activity against mouse J774A.1 cells assessed as reduction in cell proliferation at 500 uM after 72 hrs by crystal violet staining based assay; format: functional
MG-63 [7] = assay: Antiproliferative activity against human MG63 cells assessed as reduction in cell proliferation at 500 uM after 72 hrs by crystal violet staining based assay; format: functional
PC-3 [8] = assay: Antiproliferative activity against human PC3 cells assessed as reduction in cell proliferation at 500 uM after 72 hrs by crystal violet staining based assay; format: functional
[9] = target: T2, Geranylgeranyl pyrophosphate synthase (Homo sapiens) (UniProt O95749); assay: Inhibition of recombinant human C-terminal His6-tagged GGPPS expressed in Escherichia coli BL21 at 1 to 10 uM using IPP and FPP as substrates pretreated for 15 mins followed by substrates addition and measured after 1 hr by colorimetric method relative to control
T2 sequence (whole entry): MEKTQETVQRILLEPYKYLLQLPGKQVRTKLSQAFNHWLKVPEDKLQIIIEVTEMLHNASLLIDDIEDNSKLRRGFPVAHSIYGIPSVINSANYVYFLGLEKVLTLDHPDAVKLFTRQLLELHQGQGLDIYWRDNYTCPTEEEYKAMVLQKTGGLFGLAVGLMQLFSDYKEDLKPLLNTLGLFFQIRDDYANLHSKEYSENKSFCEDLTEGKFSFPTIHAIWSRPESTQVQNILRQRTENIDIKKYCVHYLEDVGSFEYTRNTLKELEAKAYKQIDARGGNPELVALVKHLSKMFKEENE

RAW264.7 [10] = assay: Antiproliferative activity against mouse RAW264.7 cells assessed as reduction in cell proliferation at 500 uM after 72 hrs by crystal violet staining based assay; format: functional
PC-3 [11] = assay: Antiproliferative activity against human PC3 cells assessed as change in cell proliferation at 100 uM after 72 hrs by crystal violet staining based assay relative to control; format: functional

Row | Structure (SMILES) | inhibition [1] | Activity (RAW264.7 [2]) | Activity (J774.A1 [3]) | Activity (MG-63 [4]) | inhibition [5] | Activity (J774.A1 [6]) | Activity (MG-63 [7]) | Activity (PC-3 [8]) | inhibition [9] | Activity (RAW264.7 [10]) | Activity (PC-3 [11])
1 | O=P(O)(O)C(O)(CCCNc1ncc2ccccc2n1)P(=O)(O)O | 30% | -24.106% | -58.954% | 5.921% | 68 to 79% | inactive | inactive | inactive | 68 to 79% | inactive | -19.628%
2 | CC(Nc1ncnc2ccccc12)C(O)(P(=O)(O)O)P(=O)(O)O (racemic) | 56% | -11.295% | -5.898% | -4.026% | 68 to 79% | inactive | inactive | inactive | 68 to 79% | inactive | -15.839%
3 | O=P(O)(O)C(O)(CCCNc1ncccn1)P(=O)(O)O | 43% | -44.249% | -37.544% | -3.759% | 68 to 79% | inactive | inactive | inactive | 68 to 79% | inactive | -45.479%
4 | O=P(O)(O)C(O)(CCCCc1ncc2ccccc2n1)P(=O)(O)O | 48% | -50.127% | -47.396% | -2.74% | 68 to 79% | inactive | inactive | inactive | 68 to 79% | inactive | -16.093%
5 | O=P(O)(O)C(O)(CNc1nc(-c2ccccc2)nc2ccccc12)P(=O)(O)O | 21% | -51.774% | -55.522% | -1.127% | 68 to 79% | inactive | inactive | inactive | 68 to 79% | inactive | 0.156%
6 | O=P(O)(O)C(O)(CNc1ncc2ccccc2n1)P(=O)(O)O | 39.9% | -25.015% | -11.108% | -15.998% | 68 to 79% | inactive | inactive | inactive | 68 to 79% | inactive | -23.934%
7 | O=P(O)(O)C(O)(CNc1nc2ccccc2s1)P(=O)(O)O | inactive |  |  |  | 68 to 79% |  | inactive | inactive | 68 to 79% |  | 
8 | O=P(O)(O)C(O)(CSc1nc2ccccc2s1)P(=O)(O)O | 26% |  |  |  | 68 to 79% |  | inactive | inactive | 68 to 79% |  | 
9 | CC(Nc1ncc2ccccc2n1)C(O)(P(=O)(O)O)P(=O)(O)O (racemic) | 40% | -16.783% | -18.855% | -8.959% | 68 to 79% | inactive | inactive | inactive | 68 to 79% | inactive | -17.252%
